# Results as given in patent US20030077740A1, “Presenilin/Crk binding polypeptides (PCBP) and methods of use thereof” (priority 2001, published 2003).
# What was measured:
# [1] = system: large hydrophilic loop of PS2; experiment: co-immunoprecipitation in 293T cells, PS2 loop; type: binding; conditions: immunoprecipitation with anti-TAG, 48 hrs after transfection
# Experimental: (§1) To confirm the yeast two-hybrid data, the interaction between PBP and PSs was assayed in mammalian cells by immunoprecipitation. Human kidney 293-T cells, and monkey kidney COS-7 cells were cultured in Dulbecco's modified Eagle's medium supplemented with 10% fetal calf serum at 37° C. in a 10% CO2 atmosphere. A nine-amino acid TAG epitope ([…]) (SEQ ID NO:6) was incorporated in-frame at the 3′ end of the PBP cDNA (PBP-TAG), and an eight amino acid FLAG epitope ([…]) (SEQ ID NO:7) was attached in frame at the 5′ end of the large hydrophilic loop of PS1 cDNA and at the 3′ end of full length PS1 cDNA as described previously (Kimura, H., Proc. Natl. Acad. Sci. (USA), 90:2165-2169 (1993)). The resulting fragments were inserted into the pCIS2 expression vector (Genentech, San Francisco, Calif.) for transient or constitutive expression. […]
# (§2) For immunoprecipitation of the large hydrophilic loop of PSs or Crk with PBP, cells were lysed in RIPA buffer (100 mM NaCl, 0.5% NP-40, 0.5% DOC, 0.1% SDS, 50 mM Tris, pH 7.5, 1 mM PMSF and 1 μg/ml aprotinin, 1 μg/l leupeptin) on ice for 30 min. […] The bound antibodies were detected by the ECL-plus chemiluminescence system (Amersham, Arlington Heights, Ill.).
# PS1 = target: T1, PS1 (Homo sapiens, UniProt P49768, L392V); experiment: yeast two-hybrid interaction with PS1; type: binding; conditions: yeast two-hybrid system
# T1 construct: the large hydrophilic loop region of PS1 (amino acids 1-81, 429-468, 263-407, respectively) were inserted into the pGBT9 vector; expressed in transfected cells; host or cells: yeast Y190
# [2] = target: T2, large hydrophilic loop of PS1 (Homo sapiens, UniProt P49768); experiment: co-immunoprecipitation in 293T cells, PS1 loop; type: binding; conditions: immunoprecipitation with anti-TAG, 48 hrs after transfection, PS1-FLAG loop
# T2 construct: and a large hydrophilic loop (amino acids 263-407); expressed in transfected cells; host or cells: 293T human kidney cells, pCIS2 expression vector
# Experimental: as §1, §2
# B103 (APP695) cells [3] = experiment: APP secretion by transfected B103 (APP695) cells, Western blotting; type: cell-based, rat
# full length PS1 [4] = target: T3, full length PS1 (Homo sapiens, UniProt P49768); experiment: co-immunoprecipitation with full length PS1 in 293T cell lines; type: binding; conditions: co-immunoprecipitation, 293T lines stably expressing PS1
# T3 construct: three different clonal 293T cell lines which stably express full length PS1 were transfected with PBP-TAG; expressed in transfected cells; host or cells: clonal 293T cell lines stably expressing PS1
# Text: (§3) To examine the interaction of PBP with the fill length PS molecule, three different clonal 293T cell lines which stably express full length PS1 were transfected with PBP-TAG and the ability of PS1 to bind to PBP assayed by immunoprecipitation. Forty-eight hrs after transfection, cells were lysed and proteins immunoprecipitated with 12CA5 (anti-TAG), which recognizes PBP-TAG (anti-PBP-TAG). The immunoprecipitates were subjected to polyacrylamide gel electrophoresis, transferred to Immobilon-P, and reacted with anti-TAG or an anti-serum against PS1.
# as §2, with “min. For immunoprecipitation of full length PS1 with PBP, RIPA buffer with 1% NP40 but without DOC and SDS was used. Cell lysates were spun for 10 min at 10,000 g. The resulting supernatants were preadsorbed with anti-mouse IgG-agarose (Sigma) for 4 hours at 4° C. After centrifugation, antibody 12CA5 and anti-mouse IgG-agarose were added at 4° C. overnight.” for “min.”, “Ill.). […]” for “Ill.).”
# full length PS1 [5] = target: T4, full length PS1 (Homo sapiens, UniProt P49768, L392V); experiment: as above; type: binding; conditions: PS1 expressing the L392V mutation, overexpressing cells
# T4 construct: three different clonal 293T cell lines which stably express full length PS1 were transfected with PBP-TAG; expressed in transfected cells; host or cells: clonal 293T cell lines stably expressing PS1
# Text: as §3
# as §2, with “min. For immunoprecipitation of full length PS1 with PBP, RIPA buffer with 1% NP40 but without DOC and SDS was used. Cell lysates were spun for 10 min at 10,000 g. The resulting supernatants were preadsorbed with anti-mouse IgG-agarose (Sigma) for 4 hours at 4° C. After centrifugation, antibody 12CA5 and anti-mouse IgG-agarose were added at 4° C. overnight.” for “min.”, “Ill.). […]” for “Ill.).”
# [6] = system: Ca2+-activated Cl- current; experiment: Ca2+-activated Cl- current induced by serum in Xenopus oocytes; type: cell-based
# Text: Xenopus oocytes contain a plasma membrane CF channel which is activated by increases in intracellular Ca^2+, and intracellular Ca^2+ release is activated exclusively by inositol 1,4,5-triphosphate (IP3) Miledi & Parker, J. Physiol., 415:189-210 (1989)). Lysophosphatidic acid (LPA) increases the Ca^2+-activated Cl^− current in oocytes expressing PS1 relative to control oocytes (Leissring et al. (1999)). Since PBP can associate with PS1, the effect of the interaction of PBP with PS1 on the activation of Ca^2+-activated Cl^− current induced by serum (Miledi & Parker (1989)) was examined with Xenopus oocytes. […] Injection of cRNAs into Xenopus oocytes and the electrophysiological recordings were done as described previously (Kimura & Schubert, Proc. Natl. Acad. Sci. (USA), 90:7508-7512 (1993)).
# B103 (APP695) cells [7] = experiment: intracellular APP level and pulse-chase turnover in B103 cells; type: cell-based, rat
substance,measurement,setting,value
"PBP: novel 2027 amino acid protein, 233 kD, binds presenilins and Crk; expressed from cDNA in cells (KYGVVICSFRGSVPQGLVLEIGETVQILEKCEGWYRGVSTKKPNVKGLFPANYIHLK; listed as Mus musculus)",interaction with large hydrophilic loop of PS2,[1],interacts
same,productive interaction with FAD mutant of PS1 (L392V),PS1,productive interactions did not occur
same,interaction with PS1,[2],interacts
same,abundance of APP mRNAs,B103 (APP695) cells [3]; RT-PCR,not altered
same,secretion of sAPPβ,"B103 (APP695) cells [3]; antibodies 22C11, GID and 6E10, vs cells without PBP",Less secretion
same,sAPPα secretion,"B103 (APP695) cells [3]; co-expression with WT PS1 or FAD PS1 (L392V), relative to PBP alone",further reduced
same,secretion of β-laminin,B103 (APP695) cells [3]; specificity control,no effect
same,secretion of sAPPα,"B103 (APP695) cells [3]; stable clones vs empty vector, antibody 6E10",dramatically decreased
same,APP secretion,"B103 (APP695) cells [3]; transient transfection, uncloned population",reduction
same,interaction with full length PS1,full length PS1 [4],interacts
same,immune precipitation of PS1 L392V with PBP,full length PS1 [5],immune precipitate with PBP
same,Ca2+-activated Cl- current,[6]; PBP alone expressed,slightly decreases
same,Cl- current,[6]; PS1-loop mutation L392V in the presence of PBP,does not suppress
same,Ca2+-activated Cl- current,"[6]; co-expression with PS1, P<0.05 PS1 vs PS1+PBP",significantly suppresses
same,"intracellular APP protein level, pulse-chase","B103 (APP695) cells [7]; 10 min 35S-methionine label, chase 15-60 min",rapidly decreased
same,"full length APP, intracellular level","B103 (APP695) cells [7]; APP695/PBP relative to APP695 cells, antibodies 6E10 and 22C11",reduced
